Test results published in patent US20040235906A1, “Substituted amine derivatives and their use as monoamine neurotransmitter re-up-take inhibitors” (priority 2001, published 2004).
pIC50: −log10 of the molar value. Where a name gives a salt, the structure may show the parent alone. Read-outs that look alike come from different tables or passages of the source.

How the values were obtained:
[1] = target: T1, reuptake of dopamine(DA) in synaptosomes (Rattus norvegicus, UniProt P23977); experiment: Inhibition of dopamine (DA) reuptake in synaptosomes; format: biochemical
T1 construct: in synaptosomes as described in WO 97/16451; from tissue
Method: (§1) A number of compounds were tested for their ability to inhibit the reuptake of the monoamine neurotransmitters dopamine(DA) noradrenaline(NA) and serotonine(5-HT) in synaptosomes as described in WO 97/16451.
(§2) The test values are given as IC50 (the concentration (μM) of the test substance which inhibits the specific binding of ^3H-DA, ^3H-NA, or ^3H-5-HT by 50%).

[2] = target: T2, reuptake of serotonine(5-HT) in synaptosomes (Rattus norvegicus, UniProt P31652); experiment: Inhibition of serotonine (5-HT) reuptake in synaptosomes; format: biochemical
T2 construct: in synaptosomes as described in WO 97/16451; from tissue
Method: as §1, §2

[3] = synaptosomes, 3H-DA, read-out: DA-uptake IC50

T1 sequence (P23977 whole entry): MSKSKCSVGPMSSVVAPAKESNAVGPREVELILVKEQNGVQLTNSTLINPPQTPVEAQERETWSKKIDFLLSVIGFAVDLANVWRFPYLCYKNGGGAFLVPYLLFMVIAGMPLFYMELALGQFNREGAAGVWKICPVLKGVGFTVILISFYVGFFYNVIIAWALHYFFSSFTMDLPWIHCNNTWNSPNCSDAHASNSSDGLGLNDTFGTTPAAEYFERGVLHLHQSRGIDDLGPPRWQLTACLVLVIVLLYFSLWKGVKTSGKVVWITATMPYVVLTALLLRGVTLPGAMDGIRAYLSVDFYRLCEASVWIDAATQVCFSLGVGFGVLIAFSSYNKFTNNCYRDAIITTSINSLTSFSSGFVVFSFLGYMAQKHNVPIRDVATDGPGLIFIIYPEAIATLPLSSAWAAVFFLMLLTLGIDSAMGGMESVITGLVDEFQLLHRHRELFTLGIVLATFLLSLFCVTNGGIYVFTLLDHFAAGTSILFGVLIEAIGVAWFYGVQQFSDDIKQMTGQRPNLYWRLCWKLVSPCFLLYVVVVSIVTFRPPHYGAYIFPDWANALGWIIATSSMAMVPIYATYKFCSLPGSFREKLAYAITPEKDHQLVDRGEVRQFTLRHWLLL
T2 sequence (P31652 whole entry): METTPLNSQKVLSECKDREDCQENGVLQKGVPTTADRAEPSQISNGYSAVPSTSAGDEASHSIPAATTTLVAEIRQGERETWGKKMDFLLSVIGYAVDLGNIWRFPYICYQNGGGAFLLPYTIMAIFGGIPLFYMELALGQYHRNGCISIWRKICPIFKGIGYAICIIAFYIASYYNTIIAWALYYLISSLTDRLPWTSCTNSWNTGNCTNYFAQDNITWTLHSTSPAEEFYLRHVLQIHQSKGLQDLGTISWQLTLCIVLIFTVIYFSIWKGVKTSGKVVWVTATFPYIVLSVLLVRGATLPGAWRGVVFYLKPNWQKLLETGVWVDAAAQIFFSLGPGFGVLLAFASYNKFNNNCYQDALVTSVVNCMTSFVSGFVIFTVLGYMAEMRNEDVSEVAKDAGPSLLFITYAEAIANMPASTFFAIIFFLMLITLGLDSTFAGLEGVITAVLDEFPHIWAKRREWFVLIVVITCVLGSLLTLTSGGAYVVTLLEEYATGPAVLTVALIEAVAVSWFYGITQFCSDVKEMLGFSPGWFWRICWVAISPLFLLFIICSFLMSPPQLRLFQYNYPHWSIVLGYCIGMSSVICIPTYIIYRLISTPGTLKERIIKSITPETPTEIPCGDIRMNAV

Row | SMILES | pIC50 [1] | pIC50 [2] | melting point | pIC50 [1, 3]
1 | CN1C2CCC1[C@H](COc1ccc(Cl)c(Cl)c1)[C@@H](c1ccc(Cl)c(Cl)c1)C2 (stereo partly drawn) [Compound 15a, (2R,3S)-2-(3,4-Dichloro-phenoxymethyl)-3-(3,4-dichloro-phenyl)-8-methyl-8-aza-bicyclo[3.2.1]octane] | 7.82 | 7.70 |  | 
2 | CN1C2CCC1[C@H](COc1ccc(Cl)c(Cl)c1)[C@@H](c1ccc(Cl)c(Cl)c1)C2 (stereo partly drawn) (as salt: fumaric acid salt) [Compound 15a, (2R,3S)-2-(3,4-Dichloro-phenoxymethyl)-3-(3,4-dichloro-phenyl)-8-methyl-8-aza-bicyclo[3.2.1]octane] |  |  | 215.1 to 217.2 °C | 
3 | CN1C2CCC1[C@H](COc1ccc(Cl)c(Cl)c1)[C@@H](c1ccccc1)C2 (stereo partly drawn) [Compound 13a, (2R,3S)-2-(3,4-Dichlorophenoxymethyl)-8-methyl-3-phenyl-8-aza-bicyclo[3.2.1]octane] | 6.27 | 9.40 |  | 
4 | CN1C2CCC1[C@H](COc1ccc(Cl)c(Cl)c1)CC2 (some centres unmarked) (as salt: fumarate) |  |  | 176 to 180 °C | 
5 | CC(C)[C@@H]1CC2CCC([C@@H]1COc1ccc(Cl)c(Cl)c1)N2C (stereo partly drawn) [Compound 16, (2R,3S)-2-(3,4-Dichloro-phenoxymethyl)-3-(2-propyl)-8-methyl-8-aza-bicyclo[3.2.1]octane fumaric acid salt] |  | 9.14 |  | < 6.00
6 | CC(C)C1CC2CCC(N2)C1COc1ccc(Cl)c(Cl)c1 [Compound of Example 10, (2R,3S)-2-(3,4-Dichloro-phenoxymethyl)-3-(2-propyl)-8-H-8-aza-bicyclo[3.2.1]octane fumaric acid salt] |  | 8.05 |  | 6.59
7 | CC(C)[C@@H]1CC2CCC([C@@H]1COc1ccc(Cl)c(Cl)c1)N2C (stereo partly drawn) (as salt: fumaric acid salt) [Compound 16, (2R,3S)-2-(3,4-Dichloro-phenoxymethyl)-3-(2-propyl)-8-methyl-8-aza-bicyclo[3.2.1]octane fumaric acid salt] |  |  | 152.3 to 154.5 °C | 
